Measurements taken from US5783599A, “Methods of treating cancer and viral infections with 5-iodo-6-amino-and 5-iodo-6-nitroso-1 2-benzopyrones” (priority 1996, dated 1998).
Converted amounts (≈) assume the structure as drawn. “Also recorded” adds a separate entry of the source. Read-outs that look alike come from different tables or passages of the source.

Key:
ADPRT [1] = target: T1, ADPRT (Bos taurus, UniProt P18493); assay: Inhibition of ADPRT / binding to ADPRT (I50, Ki); assay type: biochemical
T1 sequence (P18493 whole entry): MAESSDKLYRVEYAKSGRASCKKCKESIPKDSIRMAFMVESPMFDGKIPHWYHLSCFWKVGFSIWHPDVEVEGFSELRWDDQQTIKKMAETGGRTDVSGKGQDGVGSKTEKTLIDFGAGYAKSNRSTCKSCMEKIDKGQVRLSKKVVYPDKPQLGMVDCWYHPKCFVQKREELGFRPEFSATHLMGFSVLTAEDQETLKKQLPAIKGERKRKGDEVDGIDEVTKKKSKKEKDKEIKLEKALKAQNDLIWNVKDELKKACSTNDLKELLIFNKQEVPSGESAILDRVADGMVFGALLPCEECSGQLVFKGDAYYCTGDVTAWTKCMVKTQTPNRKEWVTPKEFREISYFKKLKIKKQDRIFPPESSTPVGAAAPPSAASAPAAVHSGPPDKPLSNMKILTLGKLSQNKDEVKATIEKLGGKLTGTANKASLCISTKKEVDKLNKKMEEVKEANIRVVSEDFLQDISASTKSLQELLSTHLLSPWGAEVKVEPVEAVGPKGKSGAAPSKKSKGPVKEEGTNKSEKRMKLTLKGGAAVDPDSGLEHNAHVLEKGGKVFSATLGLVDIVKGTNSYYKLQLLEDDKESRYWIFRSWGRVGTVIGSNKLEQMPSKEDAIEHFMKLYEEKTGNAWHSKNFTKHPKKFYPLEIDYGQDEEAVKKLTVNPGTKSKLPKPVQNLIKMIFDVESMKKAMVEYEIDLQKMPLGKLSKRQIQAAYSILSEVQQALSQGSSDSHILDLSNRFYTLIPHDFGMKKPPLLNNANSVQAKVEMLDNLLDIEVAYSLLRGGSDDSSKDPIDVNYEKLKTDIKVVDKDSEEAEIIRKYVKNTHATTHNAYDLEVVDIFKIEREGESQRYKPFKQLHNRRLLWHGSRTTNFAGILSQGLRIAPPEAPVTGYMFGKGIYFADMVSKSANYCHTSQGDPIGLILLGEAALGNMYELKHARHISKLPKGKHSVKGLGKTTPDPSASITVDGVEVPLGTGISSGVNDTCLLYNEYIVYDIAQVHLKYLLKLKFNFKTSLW
Source text: Their biological action spectrum is nearly the same as that of 6-ABP, except that their potency is about 10-50 times greater. Such potency is particularly well documented in case of 5-I-6-ABP against malignant cell proliferation in cell cultures. […] This effectivity is 10-20 times higher than 6-ABP.
The 6-amino group of 5-I-6-ABP is rapidly oxidized intracellularly to 5-I-6-NOBP which, by binding to the Zn^2+ -finger domain of ADPRT, destabilizes the tightly chelated Zn^2+ by the oxidation of the thiol groups in the Zn^2+ finger polypeptide, thus ejecting Zn^2+. In this way, 5-I-6-ABP effectively inactivates the ADPR-forming activity of this protein and converts it to a DNA binding protein that reacts with "internal domains" of certain double stranded DNA (Biochemistry, 28:5670 (1989); Biochem. Biophys. Res. Commun., 167:842 (1990)). These DNA domains include abnormally replicating DNA structures in tumorigenic or proliferative cells and in viral DNAs, probably at the integration sites.

CG1 I cells = assay: DNA synthesis ([3H]deoxyadenosine incorporation) in CG1 I cells; assay type: cell-based; conditions: Homo sapiens, 72 h, N=5
Source text: (§1) In this study, the following cell lines were used. Cell line CG I, a non-tumorigenic hybrid of HeLa cells with normal human fibroblasts, and its is tumorigenic revertant counterpart, CG1 III, as described in Science, 215:252 (1982). These cells were obtained from UC Irvine. […] HEp-2 human epidermoid carcinoma cells were provided by Dr. L. Aurelian (University of Maryland). E-Ras cells were-obtained from University of Cincinnati and represent an endothelial cell line transfected with pSV2neo plasmid as described in Proc. Natl. Acad. Sci., 76:1373 (1979). This cell line contains several copies of the activated human Ha-ras oncogene.
(§2) Cells were seeded to 2 cm^2 wells of Falcon tissue culture plates at a density of 6000±650 cells per well. Inhibitors were added to the seeding suspensions from stock solutions of 100 mM 6-ABP in water or 50 mM 5-1-6-ABP in dimethylsulfoxide (DMSO). […] Growth media were Dulbeccos MEM (lines #1 and 2), and Dulbeccols Modified Eagle's Medium, containing 10% fetal bovine serum and penicillin (100 μg/ml) plus streptomycin (100 μg/ml). […] Cells were then lysed in 500 μl of 0.06M NaOH and the acid precipitable radioactivity was determined.

GC1 III cells = assay: DNA synthesis ([3H]deoxyadenosine incorporation) in CG1 III cells; assay type: cell-based; conditions: Homo sapiens, 72 h, N=5
Source text: as §1, §2

Rat-1 cells = assay: DNA synthesis ([3H]deoxyadenosine incorporation) in Rat-1 cells; assay type: cell-based; conditions: 72 h, N=5
Source text: as §1, §2

14C cells = assay: DNA synthesis ([3H]deoxyadenosine incorporation) in 14C cells; assay type: cell-based; conditions: Rattus norvegicus, 72 h, N=5, read-out: % Inhibition of DNA synthesis
Source text: as §1, §2

HEp-2 cells = assay: DNA synthesis ([3H]deoxyadenosine incorporation) in HEp-2 cells; assay type: cell-based; conditions: Homo sapiens, 72 h, N=5, read-out: % Inhibition of DNA synthesis
Source text: as §1, §2

E-Ras cells = assay: DNA synthesis ([3H]deoxyadenosine incorporation) in E-Ras cells; assay type: cell-based; conditions: 72 h, N=5
Source text: as §1, §2

HIV [2] = assay: Inhibition of syncytia formation by HIV in MT-2 cells; assay type: cell-based
AA-2 or MT-2 cells = assay: Cell count and viability of AA-2 and MT-2 cells; assay type: cell-based, human; conditions: for effect on cell proliferation: 0.1 mM 5-I-6-ABP
Description: The effects of 5-I-6-ABP treatment of AA-2 and MT-2 cells was directly analyzed by cell count and viability tests including cloning efficiency and trypan blue uptake. The AA2 or MT-2 cell culture having initial cell count per well 0.5×10^5 was submitted to treatment with 3 mM of 6-ABP and or with 0.1 mM of 5-I-6-ABP and compared to untreated cell culture. The cells were counted 4 days after the treatment with 5-I-6-ABP and 6-ABP.

human lymphoblasts = assay: Lymphoblast viability; assay type: cell-based
Description: The viability of lymphoblasts is measured by incubating the cells exposed to IL-2, HIV and to 6-ABP with H3-thymidine for 6 hours on the sixth day of culture and determining the amount of cpm incorporated per 100,000 cells placed in culture.

[3] = system: malignant cell proliferation; assay: Malignant cell proliferation / cytostatic activity in cell cultures, overall; assay type: cell-based; conditions: for potency relative to 6-ABP: biological action spectrum
Source text: as §1
Cells were seeded to 2 cm^2 wells of Falcon tissue culture plates at a density of 6000±650 cells per well. Inhibitors were added to the seeding suspensions from stock solutions of 100 mM 6-ABP in water or 50 mM 5-1-6-ABP in dimethylsulfoxide (DMSO). […] Growth media were Dulbeccos MEM (lines #1 and 2), and Dulbeccols Modified Eagle's Medium, containing 10% fetal bovine serum and penicillin (100 μg/ml) plus streptomycin (100 μg/ml). After incubation for 72 hours at 37° C. in a 5% CO2 humidified atmosphere, incorporation of [^3 H] deoxyadenosine (ICN, 18 Ci/mmol) into DNA was tested as follows: [^3 H] deoxyadenosine (450,000 dpm in 40 μl) of medium was added per well (each containing 600 μl of medium) and incubation at 37° C. was continued for 1 hour, followed by removal of the medium and rinsing of the wells 3 times with phosphate-buffered saline. Cells were then lysed in 500 μl of 0.06M NaOH and the acid precipitable radioactivity was determined.

[4] = literature; cited from earlier work
ADPRT [5] = target: T1, ADPRT; conditions: literature; cited from earlier work
HIV [6] = assay: HIV replication by p24 formation (ELISA) in cell culture; assay type: cell-based
HIV [7] = assay: Cytopathogenic effect of HIV on AA-2 cells; assay type: cell-based
HIV [8] = assay: Cytopathogenic effect of HIV on MT-2 cells; assay type: cell-based
HIV [9] = assay: Anti-HIV activity, overall comparison with 6-ABP; assay type: cell-based
HSV = HSV replication in infected cell culture; assay type: cell-based
Description: Herpes simplex virus (HSV) type 1 and 2 (F and G strains, respectively) were grown in HEp-2 cells and titered by plaque assay under liquid overlay as described in Proc. Natl. Acad. Sci., 83:2787 (1986). Virus titers for CMV are expressed as the highest dilution that causes 50% cytopathic effect (TCID50). Virus titers for HSV-1 and HSV-2 are expressed as […] per ml. HIV titers are expressed as syncytial forming units (SFU per ml), assayed on MT2 cells. Vero, HEp-2 or MRC-5 cells are exposed to various concentrations from 0.1 to 10 mM of 5-I-6-ABP in various time intervals before infecting them with HSV-1 or HSV-2 (5-10 PFU/cell). Virus titers are determined 24 hours later.

CMV = CMV replication in infected cell culture; assay type: cell-based
HIV [10] = assay: HIV proliferation in human lymphoblasts; assay type: cell-based
Source text: The HIV isolates used in these experiments are isolated from the blood of infected patients. After isolation, HIV infection is established in CEM cells, and these infected cells are used to produce a stock of HIV virus that is titered to measure the concentration of tissue culture infective doses (TCID).
The cells are placed in culture in medium containing IL-2, but in the absence of additional 5-I-6-ABP, and monitored at 6 days and 12 days for the production of HIV-p24 core antigen, or for measurements of particulate reverse transcriptase.
HIV p24 antigen is measured by ELISA, with a cutoff of 5 pgm/ml. Particulate reverse transcriptase is measured by centrifuging down free virus from tissue culture fluids, lysing HIV in a buffer containing detergent, magnesium, H3-labelled dTTP and poly rA.oligo dT primer, incubating for 1 hour, and measuring precipitable radioactivity, and is expressed as cpm per volume of HIV-containing medium.

[11] = Toxicity after intraperitoneal administration; assay type: in vivo, rat
Description: Toxicological tests administering 5-I-6-ABP to mice were performed under the following conditions.
[…] […] […] In in vitro experiments, it was shown that at the concentration 100 mg/kg corresponding to 0.35 mM, the antiviral effect is maximal.

Solubility = assay type: physicochemical; conditions: 25° C.
Source text: The color of the compound in the solid state depends on particle size. Large crystals are a very deep brown, small crystals, a medium brown, and when pulverized, the material in all cases is orange-colored.

Stability in solution = assay type: physicochemical
Source text: 5-I-6-ABP, is a reasonably soluble molecule. It can form approximately 0. […] Such solution would be reasonably stable for use as an intravenous infusion formulation. The parenteral route of administration seems to be the most likely effective mode of administration against cancer or HIV infections at any stage of the disease. […] 5-I-6-ABP is most probably also effective for treatment of AIDS related Kaposi's sarcoma of inner organs. Properly formulated, it will also effect skin disorders. The color of the compound in the solid state depends on particle size. Large crystals are a very deep brown, small crystals, a medium brown, and when pulverized, the material in all cases is orange-colored.

[12] = Passage of blood brain barrier; conditions: in vivo
[13] = Metabolic conversion in liver / intracellular oxidation and cell penetration
other enzymes = assay: Specificity towards other enzymes
virus = assay: Antiviral effect in in vitro experiments at 0.35 mM; assay type: cell-based; conditions: 100 mg/kg corresponding to 0.35 mM

Nc1ccc2oc(=O)ccc2c1 [6-ABP, 6-amino-1,2-benzopyrone, reference compound]
IC50 (ADPRT [1]): 125 µM | Ki (ADPRT [1]): 47 µM | inhibition at 500 µM (CG1 I cells; 6-ABP 0.5 mM): -19.8% | inhibition at 500 µM (GC1 III cells; 6-ABP 0.5 mM): -37.5% | inhibition at 500 µM (Rat-1 cells; 6-ABP 0.5 mM): -30.5% | percent change in DNA synthesis versus control at 500 µM (14C cells; 6-ABP 0.5 mM): -53.3% | percent change in DNA synthesis vs control at 500 µM (HEp-2 cells; 6-ABP 0.5 mM): -47.6% | inhibition at 500 µM (E-Ras cells; 6-ABP 0.5 mM): -69.5% | inhibition of syncytia formation (HIV [2]): complete | cytotoxicity (AA-2 or MT-2 cells): does not involve cytotoxicity | effect on cell proliferation (AA-2 or MT-2 cells; 3 mM 6-ABP, 4 days): inhibitory effect on cell proliferation | toxic effects in viability test (AA-2 or MT-2 cells; 3 mM 6-ABP, 4 days): no evidence of toxic effects | cell damage or death (human lymphoblasts): without detectable cell damage or death | effectivity of 500 μM 6-ABP compared with 5-I-6-ABP ([3]; 500 μM 6-ABP vs 50 μM 5-I-6-ABP, vs 500 μM as printed): the same effectivity | sedative, hypnotic, hypothermal, antipyretic, hypotensive, adrenolytic action [4]: No significant action | ADPRT ligand (ADPRT [5]): specifically bind to ADPRT

Nc1ccc2oc(=O)ccc2c1I [5-I-6-ABP, 5-iodo-6-amino-1,2-benzopyrone]
IC50 (ADPRT [1]): 19 µM | Ki (ADPRT [1]): 2 µM | inhibition of / binding to ADPRT (ADPRT [1]): potent inhibitor of ADPRT; also recorded: much tighter binding | times more potent than 6-ABP (on a concentration basis) (ADPRT [1]; vs non-iodinated 6-ABP): about 10 times | inhibition at 50 µM (CG1 I cells; 5-I-6-ABP 0.05 mM): -7.6% | inhibition at 50 µM (GC1 III cells; 5-I-6-ABP 0.05 mM): -64.4% | inhibition at 50 µM (Rat-1 cells; 5-I-6-ABP 0.05 mM): -35.6% | percent change in DNA synthesis versus control at 50 µM (14C cells; 5-I-6-ABP 0.05 mM): -69.2% | percent change in DNA synthesis vs control at 50 µM (HEp-2 cells; 5-I-6-ABP 0.05 mM): -52.4% | inhibition at 50 µM (E-Ras cells; 5-I-6-ABP 0.05 mM): -81.8% | p24 protein formation, effect relative to 3 mM 6-ABP (HIV [6]): nearly as effective | suppressing effect on p24 generation (HIV [6]): almost equivalent suppressing effect on p24 generation | inhibition of syncytia formation (HIV [2]): complete | inhibition of syncytia formation relative to 3 mM 6-ABP (HIV [2]): only slightly less inhibitory | cytopathogenic effect of HIV, effectiveness relative to 6-ABP (HIV [7]): nearly as effective | cytopathogenic effect of HIV, effectiveness relative to 6-ABP (HIV [8]): nearly as effective | anti-HIV activity (HIV [9]): specific, potent and non-toxic inhibitor; also recorded: highly effective against HIV | effectivity against HIV relative to 6-ABP (HIV [9]): 10-20 times | inhibition of HIV replication, reversibility (HIV [9]): temporary, reversible | cytotoxicity (AA-2 or MT-2 cells): does not involve cytotoxicity | effect on cell proliferation (AA-2 or MT-2 cells; 3 mM 6-ABP, 4 days): inhibitory effect on cell proliferation | HSV inhibition (HSV): specific, potent and non-toxic inhibitor | effect of cell type on inhibitory effect (HSV; Vero, HEp-2 or MRC-5 cells, 0.1 to 10 mM): not affected by cell type | CMV inhibition (CMV): specific, potent and non-toxic inhibitor; also recorded: effectively inhibits CMV growth | inhibition of HIV, duration (HIV [10]): temporary and reversible | toxic effects, chronic ([11]; chronic administration, 100 and 500 mg/kg, several weeks): did not show any toxic effects | toxic effects, subacute ([11]; rats, i.p., 100 and 59 mg/kg in DMSO once a day, four days): no apparent toxic effects | solubility (Solubility; water, read-out: solubility in water (saturated)): 0.37 mM (≈ 106 µg/mL) | solubility (Solubility; organic solvent or mixture, DMSO, read-out: solubility in DMSO (saturated)): 1900 mM (≈ 545000 µg/mL) | solubility (Solubility; organic solvent or mixture, ethanol, read-out: solubility in ethanol (saturated)): 4.7 mM (≈ 1350 µg/mL) | stability in water, ethanol and DMSO (Stability in solution; 25° C.): stable in all of these solvents | stability of aqueous solution (Stability in solution; about 0.4 mM in water, pH 7.2-7.9, room temperature): stable for months at room temperature | stability with respect to boiling water (Stability in solution; boiling water): stable with respect to boiling water | degraded (Stability in solution; water, kept in the dark, months at room temperature, read-out: decomposition in aqueous solution): < 0.1% | blood brain barrier passage [12]: appears to cross the blood brain barrier | cell penetration ([13]; most mammalian cells, pH 7.2-7.4): to a limited degree | intracellular oxidation at 6-amino position ([13]; to 5-I-6-NOBP): rapid oxidation | metabolic conversion in the liver ([13]; to 5-I-6-nitroBP, per os): rapid conversion in the liver | cellular toxicity of cytostatic effect [3]: do not involve cellular toxicity | replication of tumorigenic cell types ([3]; 6 cell lines, Table 1): profoundly inhibited | potency relative to 6-ABP ([3]; vs 6-ABP): 10-50 times | antitumor activity relative to 6-ABP ([3]; vs 6-ABP): at least 10 times | activation or inhibition of other enzymes (other enzymes): no other enzymes are activated or inhibited | toxicity (General toxicity): completely nontoxic; also recorded: absence of toxicity | antiviral effect (virus): maximal

O=Nc1ccc2oc(=O)ccc2c1I [5-I-6-NOBP, 5-iodo-6-nitroso-1,2-benzopyrone]
inhibition of / binding to ADPRT (ADPRT [1]): binds with high affinity to zinc-fingers of enzyme ADPRT; also recorded: potent inhibitor of ADPRT | potency relative to 6-ABP ([3]; vs 6-ABP): 10-50 times
